# Test system: hedgehog signaling pathway
# Test: Gli-Luc Reporter Assay for Hh Pathway Inhibition (TMHh-12 cells, pTA-8×Gli-Luc reporter)
# Type: cell-based, Mouse
# Conditions: Mus musculus, TMHh12, Ag1.5 1 nM; read-out: Hedgehog Inhibition IC50 (nM) (Ag1.5 1 nM)
# Method in brief: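 Mouse TM3 cells stably carrying an 8×Gli-firefly luciferase reporter, in 2% FBS medium; pathway activated with recombinant mouse Shh (8 μg/mL) or Smo agonist, compounds added at varying concentrations for 48 h. Luminescence read; IC50 at 50% signal reduction. Toxicity checked in TM3 cells (CellTiter-Glo) or constitutive-luciferase TM3-Luc cells.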
row,SMILES,IC50 [nM]
1,Cc1ccc(Nc2cccc3c2CCN(S(C)(=O)=O)C3)cc1C(=O)Nc1ccc(C(F)(F)F)cc1 [Compound 184],0.7
2,Cc1ccc(Nc2cccc3c2CCN(S(C)(=O)=O)C3)cc1C(=O)Nc1ccc(F)cc1 [Compound 185],0.4
3,Cc1ccc(Nc2cccc3c2CCN(S(C)(=O)=O)C3)cc1C(=O)Nc1ccc(OC(F)(F)F)cc1 [Compound 187],1.1
4,Cc1cnc(-c2cc(Nc3cccc4c3CCN(S(C)(=O)=O)C4)ccc2C)nc1 [Compound 216],15
5,Cc1ccc(Nc2cccc3c2CCN(S(C)(=O)=O)C3)cc1-c1cc2ccccc2cn1 [Compound 229],0.3

# Same assay, conditions: Mus musculus, TMHh12, enzymatic and cellular assays for the inhibition of hedgehog signaling pathways; read-out: IC50 Ranges
row,SMILES,IC50 [nM]
1,Cc1ccc(-c2cc(Nc3cccc4c3CCN(S(C)(=O)=O)C4)ccc2C)nc1 [Compound 169],0.001 to 1
2,Cc1ccc(-c2cc(Nc3cccc4c3CCN(S(C)(=O)=O)C4)ccc2C)nn1 [Compound 170],1 to 10
3,CS(=O)(=O)N1CCc2c(cccc2Nc2cc(-c3ccc(C#N)cc3)c(Cl)cn2)C1 [Compound 171],100 to 1000
4,CS(=O)(=O)N1CCc2c(cccc2Nc2ccc(C(=O)O)c(-c3ccc(C#N)cc3)c2)C1 [Compound 172],> 10000
5,Cc1ccc(Nc2cccc3c2CCN(S(C)(=O)=O)C3)cc1-c1ccc(Cl)cn1 [Compound 173],0.001 to 1
6,COc1ccc(-c2cc(Nc3cccc4c3CCN(S(C)(=O)=O)C4)ccc2C)nc1 [Compound 174],0.001 to 1
7,CS(=O)(=O)N1CCc2c(cccc2Nc2cnc(Cl)c(-c3ccc(C#N)cc3)c2)C1 [Compound 175],10 to 100
8,COc1cnc(-c2cc(Nc3cccc4c3CCN(S(C)(=O)=O)C4)ccc2C)nc1 [Compound 176],10 to 100
9,CS(=O)(=O)N1CCc2c(cccc2Nc2ccc(CO)c(-c3ccc(C#N)cc3)c2)C1 [Compound 178],100 to 1000
10,CN(C)Cc1ccc(Nc2cccc3c2CCN(S(C)(=O)=O)C3)cc1-c1ccc(C#N)cc1 [Compound 179],100 to 1000
11,CNC(=O)c1ccc(Nc2cccc3c2CCN(S(C)(=O)=O)C3)cc1-c1ccc(C#N)cc1 [Compound 180],100 to 1000
12,Cc1ccc(Nc2cccc3c2CCN(CC(C)(C)O)C3)cc1-c1ccc(F)cn1 [Compound 181],1 to 10
13,Cc1ccc(Nc2cccc3c2CCN(CC(C)(C)F)C3)cc1-c1ccc(F)cn1 [Compound 182],1 to 10
14,COc1ccc(-c2cc(Nc3cccc4c3CCN(S(C)(=O)=O)C4)ccc2C)nn1 [Compound 183],1 to 10
15,Cc1ccc(Nc2cccc3c2CCN(S(C)(=O)=O)C3)cc1C(=O)Nc1ccc(C(F)(F)F)cc1 [Compound 184],0.001 to 1
16,Cc1ccc(Nc2cccc3c2CCN(S(C)(=O)=O)C3)cc1C(=O)Nc1ccc(F)cc1 [Compound 185],0.001 to 1
17,Cc1ccc(NC(=O)c2cc(Nc3cccc4c3CCN(S(C)(=O)=O)C4)ccc2C)cc1 [Compound 186],0.001 to 1
18,Cc1ccc(Nc2cccc3c2CCN(S(C)(=O)=O)C3)cc1C(=O)Nc1ccc(OC(F)(F)F)cc1 [Compound 187],1 to 10
19,Cc1ccc(Nc2cccc3c2CCN(S(C)(=O)=O)C3)cc1-c1ccccn1 [Compound 189],0.001 to 1
20,COc1cnc(-c2cc(Nc3cccc4c3CCN(S(C)(=O)=O)C4)ccc2C)cn1 [Compound 190],1 to 10

row,SMILES,IC50 [nM]
1,Cc1cccc(-c2cc(Nc3cccc4c3CCN(S(C)(=O)=O)C4)ccc2C)n1 [Compound 191],1 to 10
2,Cc1ccnc(-c2cc(Nc3cccc4c3CCN(S(C)(=O)=O)C4)ccc2C)c1 [Compound 192],0.001 to 1
3,Cc1ccc(Nc2cccc3c2CCN(S(C)(=O)=O)C3)cc1C(=O)N(C)c1ccccc1 [Compound 193],100 to 1000
4,Cc1ccc(Nc2cccc3c2CCN(S(C)(=O)=O)C3)cc1C(=O)N(CCO)c1ccccc1 [Compound 194],100 to 1000
5,Cc1ccc(Nc2cccc3c2CCN(C[C@H](O)CO)C3)cc1-c1ccc(F)cn1 [Compound 195],1 to 10
6,Cc1ccc(Nc2cccc3c2CCN(CCC(F)(F)F)C3)cc1-c1ccc(C#N)cn1 [Compound 196],1 to 10
7,Cc1c(CN(C)C)cc(Nc2cccc3c2CCN(S(C)(=O)=O)C3)cc1-c1ccc(F)cn1 [Compound 197],1000 to 10000
8,Cc1ccc(Nc2cccc3c2CCN(CC(C)(C)F)C3)cc1-c1ccc(C#N)cn1 [Compound 198],0.001 to 1
9,Cc1ccc(Nc2cccc3c2CCN(CC(C)(C)O)C3)cc1-c1ccc(C#N)cn1 [Compound 199],1 to 10
10,Cc1ccc(-c2cc(Nc3cccc4c3CCN(CC(C)(C)F)C4)ccc2C)nc1 [Compound 200],0.001 to 1
11,Cc1ccc(-c2cc(Nc3cccc4c3CCN(CC(C)(C)O)C4)ccc2C)nc1 [Compound 201],0.001 to 1
12,Cc1ncc(Nc2cccc3c2CCN(S(C)(=O)=O)C3)cc1-c1ccc(F)cn1 [Compound 202],10 to 100
13,CS(=O)(=O)N1CCc2c(cccc2Nc2cc(C(=O)Nc3ccccc3)c(Cl)cn2)C1 [Compound 203],1 to 10
14,Cc1ccc(Nc2cccc3c2CCN(S(C)(=O)=O)C3)cc1-c1ccc(C#N)nn1 [Compound 207],10 to 100
15,Cc1ccc(Nc2cccc3c2CCN(S(C)(=O)=O)C3)cc1-c1cnc(C#N)cn1 [Compound 208],100 to 1000
16,Cc1ccc(-c2cc(Nc3cccc4c3CCN(C[C@H](O)CO)C4)ccc2C)nn1 [Compound 209],100 to 1000
17,Cc1ccc(-c2cc(Nc3cccc4c3CCN(C[C@H](O)CO)C4)ccc2C)nc1 [Compound 210],1 to 10
18,Cc1ccc(Nc2cccc3c2CCN(CC(F)(F)CO)C3)cc1-c1ccc(C#N)cn1 [Compound 211],0.001 to 1
19,Cc1ccc(-c2cc(Nc3cccc4c3CCN(CC(F)(F)CO)C4)ccc2C)nc1 [Compound 212],0.001 to 1
20,Cc1ccc(-c2cc(Nc3cccc4c3CCN(CC(C)(C)C)C4)ccc2C)nc1 [Compound 213],1 to 10

row,SMILES,IC50 [nM]
1,Cc1ccc(Nc2cccc3c2CCN(S(C)(=O)=O)C3)cc1Oc1ccccn1 [Compound 214],100 to 1000
2,Cc1ccc(Nc2cccc3c2CCN(S(C)(=O)=O)C3)cc1OCc1ccccn1 [Compound 215],10 to 100
3,Cc1cnc(-c2cc(Nc3cccc4c3CCN(S(C)(=O)=O)C4)ccc2C)nc1 [Compound 216],10 to 100
4,Cc1ccc(Nc2cccc3c2CCN(S(C)(=O)=O)C3)cc1-c1cc(F)ccn1 [Compound 217],1 to 10
5,Cc1ccc(Nc2cccc3c2CCN(S(C)(=O)=O)C3)cc1-c1cccc(F)n1 [Compound 218],10 to 100
6,Cc1ccnc(-c2cc(Nc3cccc4c3CCN(S(C)(=O)=O)C4)ccc2C)n1 [Compound 219],10 to 100
7,Cc1ccc(Nc2cccc3c2CCN(S(C)(=O)=O)C3)cc1-c1ncc(F)cn1 [Compound 220],1 to 10
8,Cc1ccc(Nc2cccc3c2CCN(CC(C)(C)F)C3)cc1C(=O)Nc1ccccc1 [Compound 221],1 to 10
9,Cc1ccc(Nc2cccc3c2CCN(CC(C)(C)O)C3)cc1C(=O)Nc1ccccc1 [Compound 222],1 to 10
10,Cc1ccc(-c2cc(Nc3cccc4c3CCN(CCS(C)(=O)=O)C4)ccc2C)nc1 [Compound 223],0.001 to 1
11,Cc1ccc(-c2cc(Nc3cccc4c3CCN(CC(C)(F)F)C4)ccc2C)nc1 [Compound 224],0.001 to 1
12,Cc1ncc(Nc2cccc3c2CCN(S(C)(=O)=O)C3)cc1C(=O)Nc1ccccc1 [Compound 225],1 to 10
13,CS(=O)(=O)N1CCc2c(cccc2Nc2ccc(Cl)c(C(=O)Nc3ccccc3)n2)C1 [Compound 226],0.001 to 1
14,Cc1ccc(Nc2cccc3c2CCN(S(C)(=O)=O)C3)cc1-c1ncccc1F [Compound 227],0.001 to 1
15,Cc1cnc(-c2cc(Nc3cccc4c3CCN(S(C)(=O)=O)C4)ccc2C)c(F)c1 [Compound 228],0.001 to 1
16,Cc1ccc(Nc2cccc3c2CCN(S(C)(=O)=O)C3)cc1-c1cc2ccccc2cn1 [Compound 229],0.001 to 1
17,COc1ccnc(-c2cc(Nc3cccc4c3CCN(S(C)(=O)=O)C4)ccc2C)c1 [Compound 230],0.001 to 1
18,Cc1ccc(Nc2cccc3c2CCN(S(C)(=O)=O)C3)cc1-c1ccc2ccccc2n1 [Compound 231],0.001 to 1

# Reference: US9216964B2, “Hedgehog pathway modulators” (Novartis AG, priority 2008, dated 2015)
